Usually CC50 stands for the concentration at which the toxic effect on the cells reaches its halfway point. As a reminder, the fraction unbound is free concentration divided by total concentration. The kinetic solubility is the concentration staying in solution when a stock, usually in DMSO, is diluted into the medium. As usually defined, the half-life is how long it takes for the measured level to halve. By logD is commonly meant lipophilicity at a set pH, counting ionised and neutral species. By EC50 is commonly meant the concentration needed to bring the measured effect to its halfway point.

Molecules are shown by their SMILES. ≈ marks a conversion by molar mass, not a printed value.

These results are taken from PMC12621019, “Restructuring Antiviral Quinazolinone Frameworks to Derive and Optimize Inhibitors of Chikungunya Virus” (ACS Medicinal Chemistry Letters, 2025).

Data set [1] deals with NHDF cells. In words: Cytotoxicity assay (CellTiter Glo) in NHDF cells. The conditions noted are these: NHDF cells, 72 h, maximum 40 μM. For orientation: ATP-based viability assays read luminescence as a measure of living cells.
Data set [2] is described as follows: Cytotoxicity assay (CellTiter Glo) in NHDF cells. The following applies: human, CC50, NHDF cells, maximum 40 μM.
In data set [3] the test system is CHIKV (strain 181/25mKate). In words: microbe, parasite or virus in culture. The data set is classed as cell-based. The following applies: Chikungunya virus, NHDF; for log reduction at 10 µM: 72 h, read-out: titer redn, log.
Data set [4] in a line: Plasma protein binding (equilibrium dialysis). The conditions noted are these: male, CD-1, mouse.
A short description of data set [5]: Kinetic solubility determination. The conditions noted are these: for solubility kinetic at 24 h: pH 7.4, aqueous buffer, kinetic from dmso stock.
Data set [6] in a line: Liver microsomal stability. The conditions noted are these: CD-1, mouse, microsomes. (Microsomes from liver hold many membrane-bound enzymes, among them those of drug oxidation.)
Data set [7] is described as follows: physchem. The following applies: pH 7.4.
Data set [8] in a line: Mouse plasma stability. The following applies: male, CD-1, mouse.
Data set [9] in a line: Cytotoxicity in Vero E6 cells (live cell count, high-content imaging). The conditions noted are these: African green monkey.

Take `COc1c(F)cc(-n2c(C3CCCCN3)nc3cc(N4CCN(C(C)C)CC4)c(Cl)cc3c2=O)cc1F` (racemic) [rac-1h]: the CC50 entry in data set [1] (listed as racemic 1h) is recorded as “without observed cytotoxicity”. The molecule also showed a 50% cytotoxic concentration (CC50) at 72 h in data set [2] above 40 µM. Further, the log reduction at 10 µM in [3] worked out at 1.3.
In data set [4], `CC(C)N1CCN(c2cc3nc(C4CCCCN4)n(-c4ccc(Cl)cc4)c(=O)c3cc2Cl)CC1` (racemic) [rac-1x] gave a fraction unbound at 4 h, 2 μM of 0.033. Further, the CC50 at 72 h in [2] worked out at 20.9 µM. Also, in data set [3], the log reduction at 10 µM is around 4. In data set [5], this molecule had a solubility (kinetic) at 24 h of 34.6 µM (≈ 17.3 µg/mL). The half-life is above 2.42 h in data set [6] and above 4.82 h in data set [8]. Moreover, in data set [7], the logD was determined as 2.3.
Molecule `COc1c(F)cc(-n2c([C@H]3CCCCN3)nc3cc(N4CCN(C(C)C)CC4)c(Cl)cc3c2=O)cc1F` [(R)-1h] had a CC50 at 20 h in data set [9] above 20 µM. In data set [4], the fraction unbound at 4 h, 2 μM is 0.232. It took 18.6 µM to reach half-maximal cytotoxicity in data set [1] (CC50). The CC50 at 72 h in data set [2] is around 19 µM. The log reduction at 10 µM in [3] is 4.1. Besides, in data set [3] (read-out: EC50 (titer reduction assay, dose response)), the EC50 was 0.86 µM. In [5] (PBS buffer, pH 7.4), the “boost in aqueous solubility compared to rac-1x” value is recorded as 5 fold. The molecule also gave a solubility (kinetic) at 24 h in data set [5] of 183 µM (≈ 97.4 µg/mL). The half-life in [6] is above 2.42 h; in [8] it was above 4 h.
In the case of `COc1c(F)cc(-n2c([C@@H]3CCCCN3)nc3cc(N4CCN(C(C)C)CC4)c(Cl)cc3c2=O)cc1F` [(S)-1h], half-maximal cytotoxicity in data set [2] (CC50 at 72 h) was put at 34.8 µM. Also, the log reduction at 10 µM in data set [3] was determined as 1.7.
The like results for `COc1c(F)cc(-n2c([C@H]3CCCNC3)nc3cc(N4CCN(C(C)(C)C)CC4)c(Cl)cc3c2=O)cc1F` [(S)-1j] were, in that order, 8.9 µM and around 3.
On to `COc1c(F)cc(-n2c([C@H]3CCCNC3)nc3cc(N4CCN(C5CCN(C)CC5)CC4)c(Cl)cc3c2=O)cc1F` [(S)-1l], for which, in [2], the CC50 at 72 h was found to be 11.4 µM. Further, in data set [3], the log reduction at 10 µM worked out at 1.2.
`COc1c(F)cc(-n2c([C@H]3CCCNC3)nc3cc(N4CCN(C)CC4)c(Cl)cc3c2=O)cc1F` [(S)-1m] had a CC50 at 72 h in data set [2] of 24.8 µM. In addition, the log reduction at 10 µM in data set [3] worked out at 1.
The molecule `COc1c(F)cc(-n2c([C@H]3CCCNC3)nc3cc(N4CCNCC4)c(Cl)cc3c2=O)cc1F` [(S)-1n] came in with a CC50 at 72 h in data set [2] of 13.7 µM. In addition, in [3], the log reduction at 10 µM amounted to 0.8.
In data set [2], `COc1c(F)cc(-n2c([C@H]3CCCNC3)nc3cc(N4CCC(N5CCOCC5)CC4)c(Cl)cc3c2=O)cc1F` [(S)-1o] returned a CC50 at 72 h of 30.1 µM. The log reduction at 10 µM in data set [3] worked out at 0.3.
In data set [2], `COc1c(F)cc(-n2c([C@H]3CCCNC3)nc3cc(N4CCC(N5CCN(C)CC5)CC4)c(Cl)cc3c2=O)cc1F` [(S)-1p] registered a CC50 at 72 h of 12.1 µM. In addition, the log reduction at 10 µM in data set [3] was determined as 1.8.
`COc1c(F)cc(-n2c([C@H]3CCCNC3)nc3cc(N(C)CCN(C)C)c(Cl)cc3c2=O)cc1F` [(S)-1q] gave a CC50 at 72 h in [2] of 16.3 µM. The log reduction at 10 µM in data set [3] worked out at 1.2.
In the case of `CC(C)N1CCN(c2cc3nc([C@H]4CCCNC4)n(C)c(=O)c3cc2Cl)CC1` [(S)-1r], the CC50 at 72 h in data set [2] was above 40 µM. In addition, the log reduction at 10 µM in [3] came to 0.7.
For `CC(C)N1CCN(c2cc3nc([C@H]4CCCNC4)n(-c4ccccc4)c(=O)c3cc2Cl)CC1` [(S)-1s], in that order: above 40 µM and 1.
The molecule `CC(C)N1CCN(c2cc3nc([C@H]4CCCNC4)n(-c4ccc(Cl)cc4)c(=O)c3cc2Cl)CC1` [(S)-1v] showed a CC50 at 72 h in [2] of 17.2 µM. Also, the log reduction at 10 µM in data set [3] turned out to be 2.
`CC(C)N1CCN(c2cc3nc([C@H]4CCCNC4)n(-c4cccc(Cl)c4)c(=O)c3cc2Cl)CC1` [(S)-1w] returned a CC50 at 72 h in data set [2] of 14.8 µM. Further, in [3], the log reduction at 10 µM was 2.6.
In the case of `CC(C)N1CCN(c2cc3nc([C@@H]4CCCCN4)n(-c4ccc(Cl)cc4)c(=O)c3cc2Cl)CC1` [(S)-1x], the CC50 at 72 h in [2] worked out at 16.5 µM. Further, the log reduction at 10 µM in [3] is 3.4.
For `COc1c(F)cc(-n2c([C@H]3CCCN(C)C3)nc3cc(N4CCN(C(C)C)CC4)c(Cl)cc3c2=O)cc1F` [(S)-1y], in that order: 29.1 µM and 1.1.
For `COc1c(F)cc(-n2c([C@@H]3CCCCN3C)nc3cc(N4CCN(C(C)C)CC4)c(Cl)cc3c2=O)cc1F` [(S)-1z], in that order: 36.5 µM and 0.5.
